Test results published in ChEMBL document CHEMBL1140373, “Azepanone-based inhibitors of human cathepsin L” (J Med Chem, 2005).
Residues, ends and D or L forms follow the SMILES beside them. *: point of attachment. Cbz = O=C(OCc1ccccc1)*

Tests used:
[1] = molecular target: T1, Cathepsin K (Homo sapiens, UniProt P43235); assay: Apparent inhibitory constant against human cathepsin K; conditions: read-out: Ki app
T1 sequence (P43235 whole entry): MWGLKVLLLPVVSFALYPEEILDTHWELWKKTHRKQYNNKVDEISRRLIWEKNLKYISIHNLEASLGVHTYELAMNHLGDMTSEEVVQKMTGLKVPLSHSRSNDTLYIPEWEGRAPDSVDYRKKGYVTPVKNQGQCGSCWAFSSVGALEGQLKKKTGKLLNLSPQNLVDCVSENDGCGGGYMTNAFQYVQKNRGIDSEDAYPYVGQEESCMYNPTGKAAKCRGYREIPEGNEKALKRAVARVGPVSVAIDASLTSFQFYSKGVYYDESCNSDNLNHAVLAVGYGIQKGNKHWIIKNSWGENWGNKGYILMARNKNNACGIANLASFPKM

[2] = molecular target: Procathepsin L (Homo sapiens, UniProt P07711); assay: Apparent inhibitory constant against human cathepsin L; conditions: read-out: Ki app
[3] = molecular target: Cathepsin S (Homo sapiens, UniProt P25774)
Description: Apparent inhibitory constant against human cathepsin S

[4] = molecular target: Cathepsin B (Homo sapiens, UniProt P07858); assay: Apparent inhibitory constant against human cathepsin B; conditions: read-out: Ki app

Chain of Cathepsin S (P25774 whole entry): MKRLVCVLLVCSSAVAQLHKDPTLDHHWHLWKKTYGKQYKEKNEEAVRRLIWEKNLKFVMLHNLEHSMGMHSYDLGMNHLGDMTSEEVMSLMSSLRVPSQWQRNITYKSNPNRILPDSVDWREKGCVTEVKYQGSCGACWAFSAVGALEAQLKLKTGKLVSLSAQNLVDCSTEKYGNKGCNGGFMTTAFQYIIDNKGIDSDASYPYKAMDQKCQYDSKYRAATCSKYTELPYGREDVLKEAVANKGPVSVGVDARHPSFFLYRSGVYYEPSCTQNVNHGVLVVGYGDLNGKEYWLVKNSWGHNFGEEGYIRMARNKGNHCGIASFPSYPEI
Chain of Procathepsin L (P07711 whole entry): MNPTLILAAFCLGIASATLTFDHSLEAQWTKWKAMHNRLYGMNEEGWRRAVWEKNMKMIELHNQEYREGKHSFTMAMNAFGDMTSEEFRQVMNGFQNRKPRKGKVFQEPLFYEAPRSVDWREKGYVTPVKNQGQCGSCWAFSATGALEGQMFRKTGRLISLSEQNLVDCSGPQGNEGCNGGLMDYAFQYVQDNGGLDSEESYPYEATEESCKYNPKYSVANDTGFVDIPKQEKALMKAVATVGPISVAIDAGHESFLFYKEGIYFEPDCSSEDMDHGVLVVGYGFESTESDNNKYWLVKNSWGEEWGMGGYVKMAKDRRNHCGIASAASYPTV

| Ki [1] [nM] | Ki [2] [nM] | Ki [3] [nM] | Ki [4] [nM] | SMILES |
| --- | --- | --- | --- | --- |
| 12 | 1.4 | 5.7 | – | CC(C)C[C@H](NC(=O)c1cccc2ccccc12)C(=O)N[C@H]1CCCN(S(=O)(=O)c2ccccn2)CC1=O |
| 0.74 | 0.47 | 0.26 | – | O=C[C@H](Cc1ccc(O)cc1)NC(=O)[C@H](Cc1ccccc1)NC(=O)OCc1ccccc1 (Cbz-Phe-Tyr-aldehyde) |
| 0.89 | 5 | 27 | 740 | CC(C)C[C@H](NC(=O)c1ccc2ccccc2n1)C(=O)N[C@H]1CCCN(S(=O)(=O)c2ccccn2)CC1=O |
| 10.5 | 1.7 | 8.9 | 193 | O=C(N[C@@H](Cc1ccccc1)C(=O)N[C@H]1CCCN(S(=O)(=O)c2ccccn2)CC1=O)c1cc2ccccc2o1 |
| 52 | 8.2 | 41 | > 1000 | CC(C)C[C@H](NC(=O)c1cccc2cccnc12)C(=O)N[C@H]1CCCN(S(=O)(=O)c2ccccn2)CC1=O |
| > 10000 | 0.43 | 15.6 | 150 | O=C(N[C@@H](Cc1ccc2ccccc2c1)C(=O)N[C@H]1CCCN(S(=O)(=O)c2ccccn2)CC1=O)c1cccc2ccccc12 |
| 295 | 0.57 | 3.1 | 24 | O=C(N[C@@H](Cc1ccc2ccccc2c1)C(=O)N[C@H]1CCCN(S(=O)(=O)c2ccccn2)CC1=O)c1cc2ccccc2o1 |
